In PubChem BioAssay AID248 (DTP/NCI, 2004):
Toxic doses and inconclusive results are not listed. Rule as the data show it: active = T/C of 150% or more; inactive = T/C below 125%.

Test system: L1210 leukemia ip in BDF1 mice, survival T/C
Test: NCI In Vivo Anticancer Drug Screen. Data for tumor model L1210 Leukemia (intraperitoneal) in B6D2F1 (BDF1) mice
Settings: endpoint: mean survival time, higher = longer survival
Procedure, shortened: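 Transplanted-tumor mice were given test agent; controls received vehicle only. Survival readings from the two groups were divided (treated over control).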

[1] = dose: 100.0 mg/kg/injection, schedule: Q01DX009 (ip), vehicle: saline
[2] = dose: 100.0 mg/kg/injection, schedule: Q04DX003 (ip), vehicle: saline
[3] = dose: 200.0 mg/kg/injection, schedule: Q01DX009 (ip), vehicle: saline
[4] = dose: 200.0 mg/kg/injection, schedule: Q04DX003 (ip), vehicle: saline
[5] = dose: 400.0 mg/kg/injection, schedule: Q04DX003 (ip), vehicle: saline
[6] = dose: 100.0 mg/kg/injection, schedule: Q01DX009 (ip), vehicle: Klucel (hydroxypropylcellulose) (HPC)
[7] = dose: 100.0 mg/kg/injection, schedule: Q04DX003 (ip), vehicle: Klucel (hydroxypropylcellulose) (HPC)
[8] = dose: 200.0 mg/kg/injection, schedule: Q01DX009 (ip), vehicle: Klucel (hydroxypropylcellulose) (HPC)
[9] = dose: 200.0 mg/kg/injection, schedule: Q04DX003 (ip), vehicle: Klucel (hydroxypropylcellulose) (HPC)
[10] = dose: 400.0 mg/kg/injection, schedule: Q01DX009 (ip), vehicle: Klucel (hydroxypropylcellulose) (HPC)
[11] = dose: 400.0 mg/kg/injection, schedule: Q04DX003 (ip), vehicle: Klucel (hydroxypropylcellulose) (HPC)
[12] = dose: 100.0 mg/kg/injection, schedule: Q01DX009 (ip), vehicle: saline with Tween-80
[13] = dose: 200.0 mg/kg/injection, schedule: Q01DX009 (ip), vehicle: saline with Tween-80
[14] = dose: 100.0 mg/kg/injection, schedule: Q01DX001 (ip), vehicle: Klucel (hydroxypropylcellulose) (HPC)
[15] = dose: 200.0 mg/kg/injection, schedule: Q01DX001 (ip), vehicle: Klucel (hydroxypropylcellulose) (HPC)
[16] = dose: 400.0 mg/kg/injection, schedule: Q01DX001 (ip), vehicle: Klucel (hydroxypropylcellulose) (HPC)
[17] = dose: 100.0 mg/kg/injection, schedule: Q01DX001 (ip), vehicle: carboxymethylcellulose (CMC)
[18] = dose: 200.0 mg/kg/injection, schedule: Q01DX001 (ip), vehicle: carboxymethylcellulose (CMC)
[19] = dose: 400.0 mg/kg/injection, schedule: Q01DX001 (ip), vehicle: carboxymethylcellulose (CMC)

Measured: T/C

Cc1c[nH]c(=O)cn1
inactive: [1] 97 % of control | [2] 94 % of control | [3] 90 % of control | [4] 104 % of control | dose: 400.0 mg/kg/injection, schedule: Q01DX009 (ip), vehicle: saline 93 % of control | [5] 104 % of control

COc1ccc(C(=O)c2ccc(C)cc2)cc1
inactive: [6] 102 % of control | [7] 95 % of control | [8] 105 % of control | [9] 101 % of control | [10] 96 % of control | [11] 102 % of control

CCOC(=O)CC(C(=O)OCC)C(C(=O)OCC)C(=O)OCC (configuration not stated)
inactive: dose: 50.0 mg/kg/injection, schedule: Q01DX009 (ip), vehicle: saline with Tween-80 111 % of control | [12] 101 % of control | [13] 101 % of control

C[N+]1(C)C2C=CCC1CSC2 (configuration not stated)
inactive: dose: 15.0 mg/kg/injection, schedule: Q01DX001 (ip), vehicle: saline 110 % of control

O=Cc1c[nH]c(=O)[nH]c1=O
inactive: dose: 50.0 mg/kg/injection, schedule: Q01DX009 (ip), vehicle: saline 109 % of control | [14] 94 % of control | [1] 103 % of control | [2] 95 % of control | [15] 105 % of control | [3] 106 % of control | [4] 103 % of control | [16] 101 % of control | [5] 95 % of control

CC12CCC(O)C(C)(C)C1CCC1=C2CCC2(C)C(c3ccoc3)CCC12C (configuration not stated)
inactive: dose: 50.0 mg/kg/injection, schedule: Q01DX001 (sc), vehicle: steriod suspending solution 111 % of control | dose: 100.0 mg/kg/injection, schedule: Q01DX001 (sc), vehicle: steriod suspending solution 115 % of control | dose: 200.0 mg/kg/injection, schedule: Q01DX001 (sc), vehicle: steriod suspending solution 105 % of control | dose: 400.0 mg/kg/injection, schedule: Q01DX001 (sc), vehicle: steriod suspending solution 109 % of control

Cc1ccc(S(=O)(=O)N(C)c2cc(Cl)c(C(N)=O)c(Cl)c2)cc1
inactive: [14] 93 % of control | dose: 100.0 mg/kg/injection, schedule: Q01DX009 (ip), vehicle: saline sonified 97 % of control | [12] 98 % of control | dose: 100.0 mg/kg/injection, schedule: Q04DX003 (ip), vehicle: saline with Tween-80 105 % of control | [15] 95 % of control | dose: 200.0 mg/kg/injection, schedule: Q01DX009 (ip), vehicle: saline sonified 105 % of control | [13] 90 % of control | dose: 200.0 mg/kg/injection, schedule: Q04DX003 (ip), vehicle: saline with Tween-80 101 % of control | [16] 100 % of control | dose: 400.0 mg/kg/injection, schedule: Q01DX009 (ip), vehicle: saline sonified 93 % of control | dose: 400.0 mg/kg/injection, schedule: Q01DX009 (ip), vehicle: saline with Tween-80 92 % of control | dose: 400.0 mg/kg/injection, schedule: Q04DX003 (ip), vehicle: saline with Tween-80 92 % of control

O=C(NCCCl)Nc1ccccn1
inactive: [7] 90 % of control | [9] 94 % of control | [11] 86 % of control

Nc1ccc(NC(=S)Nc2ccccc2)cc1
inactive: [6] 104 % of control | [7] 93 % of control | [8] 101 % of control | [9] 95 % of control | [10] 97 % of control | [11] 92 % of control

CC1(C)CCC2(C)CCCCC2C1O (configuration not stated)
inactive: dose: 50.0 mg/kg/injection, schedule: Q04DX002 (ip), vehicle: saline with Tween-80 92 % of control | dose: 100.0 mg/kg/injection, schedule: Q04DX002 (ip), vehicle: saline with Tween-80 96 % of control | dose: 200.0 mg/kg/injection, schedule: Q04DX002 (ip), vehicle: saline with Tween-80 101 % of control

CCOC(=O)C(=Cc1ccccc1)C(=O)OCC
inactive: dose: 100.0 mg/kg/injection, schedule: Q01DX001 (ip), vehicle: saline 96 % of control | dose: 100.0 mg/kg/injection, schedule: Q04DX002 (ip), vehicle: Klucel (hydroxypropylcellulose) (HPC) 98 % of control | dose: 200.0 mg/kg/injection, schedule: Q01DX001 (ip), vehicle: saline 100 % of control | dose: 200.0 mg/kg/injection, schedule: Q04DX002 (ip), vehicle: Klucel (hydroxypropylcellulose) (HPC) 95 % of control | dose: 400.0 mg/kg/injection, schedule: Q01DX001 (ip), vehicle: saline 100 % of control | dose: 400.0 mg/kg/injection, schedule: Q04DX002 (ip), vehicle: Klucel (hydroxypropylcellulose) (HPC) 102 % of control

O=C1OC(c2ccccc2)=N/C1=C\c1ccccc1
inactive: dose: 50.0 mg/kg/injection, schedule: Q01DX001 (ip), vehicle: carboxymethylcellulose (CMC) 93 % of control | [17] 95 % of control | dose: 100.0 mg/kg/injection, schedule: Q04DX002 (ip), vehicle: gum acacia 91 % of control | [18] 101 % of control | dose: 200.0 mg/kg/injection, schedule: Q04DX002 (ip), vehicle: gum acacia 109 % of control | [19] 90 % of control | dose: 400.0 mg/kg/injection, schedule: Q04DX002 (ip), vehicle: gum acacia 98 % of control

NC(N)=N/N=C\c1c[nH]c2ccc(Br)cc12
inactive: dose: 15.0 mg/kg/injection, schedule: Q01DX Z (ip), vehicle: saline 96 % of control | dose: 30.0 mg/kg/injection, schedule: Q01DX Z (ip), vehicle: saline 113 % of control | dose: 60.0 mg/kg/injection, schedule: Q01DX Z (ip), vehicle: saline 103 % of control | dose: 120.0 mg/kg/injection, schedule: Q01DX Z (ip), vehicle: saline 106 % of control | dose: 240.0 mg/kg/injection, schedule: Q01DX Z (ip), vehicle: saline 98 % of control | dose: 240.0 mg/kg/injection, schedule: Q01DX Z (oral), vehicle: saline 94 % of control | dose: 480.0 mg/kg/injection, schedule: Q01DX Z (oral), vehicle: saline 94 % of control

CC(C)C(C)/C=C/C(C)C1CCC2C3=C(C=CC21C)C1(C)CCCCC1=CC3C1C=C2CCCCC2(C)C2=C1C1CCC(C(C)/C=C/C(C)C(C)C)C1(C)C=C2 (configuration not stated)
inactive: [7] 90 % of control | [9] 100 % of control | [11] 90 % of control

C[Si](C)(CCCC(N)C(=O)O)O[Si](C)(C)CCCC(N)C(=O)O (configuration not stated)
inactive: [7] 98 % of control | [9] 100 % of control | [11] 98 % of control

O=C(O)c1ccccc1/C=N/NC(=O)C(O)(c1ccccc1)c1ccccc1
inactive: [17] 114 % of control | [18] 101 % of control | [19] 103 % of control
